Values after ≈ are worked out from the molar mass of the structure shown.
Tests used:
Assay type in all cases: functional
Apophysomyces [1] = assay: Antifungal activity against Apophysomyces spp. after 48 hrs by microdilution method
Cunninghamella [2] = assay: Antifungal activity against Cunninghamella spp. after 48 hrs by microdilution method
Rhizopus arrhizus [3] = assay: Antifungal activity against Rhizopus oryzae after 48 hrs by microdilution method
Rhizopus arrhizus [4] = assay: Antifungal activity against Rhizopus oryzae after 24 hrs by microdilution method
Actinomucor [5] = assay: Antifungal activity against Actinomucor spp. after 24 hrs by microdilution method
Apophysomyces [6] = assay: Antifungal activity against Apophysomyces spp. after 24 hrs by microdilution method
[7] = Antifungal activity against Rhizopus microsporus after 24 hrs by microdilution method
[8] = tested on: Cunninghamella bertholletiae; assay: Antifungal activity against Cunninghamella bertholletiae after 24 hrs by microdilution method
Actinomucor [9] = assay: Antifungal activity against Actinomucor spp. after 48 hrs by microdilution method
[10] = Antifungal activity against Rhizomucor variabilis after 48 hrs by microdilution method
[11] = Antifungal activity against Rhizomucor pusillus after 24 hrs by microdilution method
[12] = Antifungal activity against Rhizomucor pusillus after 48 hrs by microdilution method
[13] = Antifungal activity against Rhizomucor variabilis after 24 hrs by microdilution method
Cunninghamella [14] = assay: Antifungal activity against Cunninghamella spp. after 24 hrs by microdilution method
[15] = tested on: Cunninghamella bertholletiae; assay: Antifungal activity against Cunninghamella bertholletiae after 48 hrs by microdilution method
Mucor circinelloides [16] = assay: Antifungal activity against Mucor circinelloides after 24 hrs by microdilution method
Lichtheimia corymbifera [17] = assay: Antifungal activity against Mycocladus corymbifer after 24 hrs by microdilution method
Lichtheimia corymbifera [18] = assay: Antifungal activity against Mycocladus corymbifer after 48 hrs by microdilution method
[19] = Antifungal activity against Rhizopus microsporus after 48 hrs by microdilution method
Mucor circinelloides [20] = assay: Antifungal activity against Mucor circinelloides after 48 hrs by microdilution method

C[C@@H]1[C@H](O)[C@@H](C)/C=C/C=C/C=C/C=C/C=C/C=C/C=C/[C@H](O[C@@H]2O[C@H](C)[C@@H](O)[C@H](N)[C@@H]2O)C[C@@H]2O[C@](O)(C[C@@H](O)C[C@@H](O)[C@H](O)CC[C@@H](O)C[C@@H](O)CC(=O)O[C@H]1C)C[C@H](O)[C@H]2C(=O)O [AMPHOTERICIN B]
MIC (Apophysomyces [1]): 8 µg/mL (≈ 8.66 µM)
MIC (Cunninghamella [2]): 4 µg/mL (≈ 4.33 µM)
MIC (Rhizopus arrhizus [3]): 1 µg/mL (≈ 1.08 µM)
MIC (Rhizopus arrhizus [4]): 0.29 µg/mL (≈ 0.314 µM)
MIC (Actinomucor [5]): 1 µg/mL (≈ 1.08 µM)
MIC (Apophysomyces [6]): 2 µg/mL (≈ 2.16 µM)
MIC [7]: 0.45 µg/mL (≈ 0.487 µM)
MIC [8]: 7.13 µg/mL (≈ 7.72 µM)
MIC (Actinomucor [9]): 1.41 µg/mL (≈ 1.53 µM)
MIC [10]: 0.09 µg/mL (≈ 0.0974 µM)
MIC [11]: 0.05 µg/mL (≈ 0.0541 µM)
MIC [12]: 0.1 µg/mL (≈ 0.108 µM)
MIC [13]: 0.03 µg/mL (≈ 0.0325 µM)
MIC (Cunninghamella [14]): 2.83 µg/mL (≈ 3.06 µM)
MIC [15]: 7.13 µg/mL (≈ 7.72 µM)
MIC (Mucor circinelloides [16]): 0.05 µg/mL (≈ 0.0541 µM)
MIC (Lichtheimia corymbifera [17]): 0.08 µg/mL (≈ 0.0866 µM)
MIC (Lichtheimia corymbifera [18]): 0.14 µg/mL (≈ 0.152 µM)
MIC [19]: 0.89 µg/mL (≈ 0.963 µM)
MIC (Mucor circinelloides [20]): 0.15 µg/mL (≈ 0.162 µM)

CCC(C)n1ncn(-c2ccc(N3CCN(c4ccc(OCC5COC(Cn6cncn6)(c6ccc(Cl)cc6Cl)O5)cc4)CC3)cc2)c1=O (stereo not given) [ITRACONAZOLE]
MIC (Apophysomyces [1]): 16 µg/mL (≈ 22.7 µM)
MIC (Cunninghamella [2]): 4 µg/mL (≈ 5.67 µM)
MIC (Rhizopus arrhizus [3]): 6.96 µg/mL (≈ 9.86 µM)
MIC (Rhizopus arrhizus [4]): 4 µg/mL (≈ 5.67 µM)
MIC (Actinomucor [5]): 2 µg/mL (≈ 2.83 µM)
MIC (Apophysomyces [6]): 16 µg/mL (≈ 22.7 µM)
MIC [7]: 1.59 µg/mL (≈ 2.25 µM)
MIC [8]: 3.17 µg/mL (≈ 4.49 µM)
MIC (Actinomucor [9]): 2 µg/mL (≈ 2.83 µM)
MIC [10]: 16 µg/mL (≈ 22.7 µM)
MIC [11]: 0.29 µg/mL (≈ 0.411 µM)
MIC [12]: 0.44 µg/mL (≈ 0.624 µM)
MIC [13]: 16 µg/mL (≈ 22.7 µM)
MIC (Cunninghamella [14]): 0.5 µg/mL (≈ 0.709 µM)
MIC [15]: 10.1 µg/mL (≈ 14.3 µM)
MIC (Mucor circinelloides [16]): 11.9 µg/mL (≈ 16.8 µM)
MIC (Lichtheimia corymbifera [17]): 0.68 µg/mL (≈ 0.964 µM)
MIC (Lichtheimia corymbifera [18]): 1.35 µg/mL (≈ 1.91 µM)
MIC [19]: 3.56 µg/mL (≈ 5.05 µM)
MIC (Mucor circinelloides [20]): 16 µg/mL (≈ 22.7 µM)

CC[C@@H]([C@H](C)O)n1ncn(-c2ccc(N3CCN(c4ccc(OC[C@@H]5CO[C@@](Cn6cncn6)(c6ccc(F)cc6F)C5)cc4)CC3)cc2)c1=O [POSACONAZOLE]
MIC (Apophysomyces [1]): 1 µg/mL (≈ 1.43 µM)
MIC (Cunninghamella [2]): 4 µg/mL (≈ 5.71 µM)
MIC (Rhizopus arrhizus [3]): 2 µg/mL (≈ 2.85 µM)
MIC (Rhizopus arrhizus [4]): 1.15 µg/mL (≈ 1.64 µM)
MIC (Actinomucor [5]): 0.06 µg/mL (≈ 0.0856 µM)
MIC (Apophysomyces [6]): 0.5 µg/mL (≈ 0.713 µM)
MIC [7]: 0.79 µg/mL (≈ 1.13 µM)
MIC [8]: 2.3 µg/mL (≈ 3.28 µM)
MIC (Actinomucor [9]): 0.125 µg/mL (≈ 0.178 µM)
MIC [10]: 16 µg/mL (≈ 22.8 µM)
MIC [11]: 0.16 µg/mL (≈ 0.228 µM)
MIC [12]: 0.28 µg/mL (≈ 0.4 µM)
MIC [13]: 1.41 µg/mL (≈ 2.01 µM)
MIC (Cunninghamella [14]): 0.25 µg/mL (≈ 0.357 µM)
MIC [15]: 4.59 µg/mL (≈ 6.55 µM)
MIC (Mucor circinelloides [16]): 1.49 µg/mL (≈ 2.13 µM)
MIC (Lichtheimia corymbifera [17]): 0.41 µg/mL (≈ 0.585 µM)
MIC (Lichtheimia corymbifera [18]): 0.67 µg/mL (≈ 0.956 µM)
MIC [19]: 3.17 µg/mL (≈ 4.52 µM)
MIC (Mucor circinelloides [20]): 2.69 µg/mL (≈ 3.84 µM)

C[C@@H](c1nc(-c2ccc(C#N)cc2)cs1)[C@](O)(Cn1cncn1)c1ccc(F)cc1F [RAVUCONAZOLE]
MIC (Apophysomyces [1]): 4 µg/mL (≈ 9.14 µM)
MIC (Cunninghamella [2]): 8 µg/mL (≈ 18.3 µM)
MIC (Rhizopus arrhizus [3]): 1.32 µg/mL (≈ 3.02 µM)
MIC (Rhizopus arrhizus [4]): 1 µg/mL (≈ 2.29 µM)
MIC (Actinomucor [5]): 0.25 µg/mL (≈ 0.571 µM)
MIC (Apophysomyces [6]): 2 µg/mL (≈ 4.57 µM)
MIC [7]: 0.89 µg/mL (≈ 2.03 µM)
MIC [8]: 8 µg/mL (≈ 18.3 µM)
MIC (Actinomucor [9]): 0.5 µg/mL (≈ 1.14 µM)
MIC [10]: 16 µg/mL (≈ 36.6 µM)
MIC [11]: 0.66 µg/mL (≈ 1.51 µM)
MIC [12]: 0.87 µg/mL (≈ 1.99 µM)
MIC [13]: 8 µg/mL (≈ 18.3 µM)
MIC (Cunninghamella [14]): 1 µg/mL (≈ 2.29 µM)
MIC [15]: 12.1 µg/mL (≈ 27.7 µM)
MIC (Mucor circinelloides [16]): 11.9 µg/mL (≈ 27.2 µM)
MIC (Lichtheimia corymbifera [17]): 1.22 µg/mL (≈ 2.79 µM)
MIC (Lichtheimia corymbifera [18]): 2 µg/mL (≈ 4.57 µM)
MIC [19]: 1.78 µg/mL (≈ 4.07 µM)
MIC (Mucor circinelloides [20]): 13.1 µg/mL (≈ 30 µM)

CN(C/C=C/C#CC(C)(C)C)Cc1cccc2ccccc12 [TERBINAFINE]
MIC (Apophysomyces [1]): 2 µg/mL (≈ 6.86 µM)
MIC (Cunninghamella [2]): 0.18 µg/mL (≈ 0.618 µM)
MIC (Rhizopus arrhizus [3]): 32 µg/mL (≈ 110 µM)
MIC (Rhizopus arrhizus [4]): 24.2 µg/mL (≈ 83.2 µM)
MIC (Actinomucor [5]): 0.125 µg/mL (≈ 0.429 µM)
MIC (Apophysomyces [6]): 2 µg/mL (≈ 6.86 µM)
MIC [7]: 0.71 µg/mL (≈ 2.44 µM)
MIC [8]: 0.4 µg/mL (≈ 1.37 µM)
MIC (Actinomucor [9]): 0.36 µg/mL (≈ 1.24 µM)
MIC [10]: 32 µg/mL (≈ 110 µM)
MIC [11]: 0.22 µg/mL (≈ 0.755 µM)
MIC [12]: 0.33 µg/mL (≈ 1.13 µM)
MIC [13]: 32 µg/mL (≈ 110 µM)
MIC (Cunninghamella [14]): 0.13 µg/mL (≈ 0.446 µM)
MIC [15]: 0.49 µg/mL (≈ 1.68 µM)
MIC (Mucor circinelloides [16]): 21.5 µg/mL (≈ 73.9 µM)
MIC (Lichtheimia corymbifera [17]): 0.5 µg/mL (≈ 1.72 µM)
MIC (Lichtheimia corymbifera [18]): 1 µg/mL (≈ 3.43 µM)
MIC [19]: 1.41 µg/mL (≈ 4.84 µM)
MIC (Mucor circinelloides [20]): 32 µg/mL (≈ 110 µM)

C[C@@H](c1ncncc1F)[C@](O)(Cn1cncn1)c1ccc(F)cc1F [VORICONAZOLE]
MIC (Apophysomyces [1]): 16 µg/mL (≈ 45.8 µM)
MIC (Cunninghamella [2]): 16 µg/mL (≈ 45.8 µM)
MIC (Rhizopus arrhizus [3]): 16 µg/mL (≈ 45.8 µM)
MIC (Rhizopus arrhizus [4]): 12.1 µg/mL (≈ 34.7 µM)
MIC (Actinomucor [5]): 16 µg/mL (≈ 45.8 µM)
MIC (Apophysomyces [6]): 16 µg/mL (≈ 45.8 µM)
MIC [7]: 8 µg/mL (≈ 22.9 µM)
MIC [8]: 16 µg/mL (≈ 45.8 µM)
MIC (Actinomucor [9]): 22.6 µg/mL (≈ 64.8 µM)
MIC [10]: 16 µg/mL (≈ 45.8 µM)
MIC [11]: 5.28 µg/mL (≈ 15.1 µM)
MIC [12]: 6.06 µg/mL (≈ 17.3 µM)
MIC [13]: 16 µg/mL (≈ 45.8 µM)
MIC (Cunninghamella [14]): 16 µg/mL (≈ 45.8 µM)
MIC [15]: 16 µg/mL (≈ 45.8 µM)
MIC (Mucor circinelloides [16]): 16 µg/mL (≈ 45.8 µM)
MIC (Lichtheimia corymbifera [17]): 14.5 µg/mL (≈ 41.5 µM)
MIC (Lichtheimia corymbifera [18]): 16 µg/mL (≈ 45.8 µM)
MIC [19]: 8.98 µg/mL (≈ 25.7 µM)
MIC (Mucor circinelloides [20]): 16 µg/mL (≈ 45.8 µM)

Source: ChEMBL document CHEMBL1629671, “Activity of posaconazole and other antifungal agents against Mucorales strains identified by sequencing of internal transcribed spacers” (2009)
